Experiments:
NIH3T3 = experiment: MTT cytotoxicity assay (Example 1); type: cell-based, mouse; settings: Mus musculus, NIH3T3, 72 h
From the text: (§1) Human breast cancer cells MDA-MB-435 were purchased from the American Type Culture Collection (Manassas, Va.). The HCT116 p53+/+ and HCT116 p53−/− cells were kindly provided by Dr. Bert Vogelstein (Johns Hopkins Medical Institutions, Baltimore, Md.). The human ovarian carcinoma cell line (HEY) which is naturally resistant to cisplatin, was kindly provided by Dr. Louis Dubeau, University of Southern California (USC) Norris Cancer Center, and NIH3T3 normal mouse fibroblast cells were kindly provided by Dr. Michael Press from USC. HEY and NIH3T3 cells were maintained as monolayer cultures in RPMI, HCT 116 cells in McCoy1s5A media and MDA-MB 435 in DMEM. Media were purchased from (Mediatech, Virginia) and supplemented with 10% fetal bovine serum (Gemini-Bioproducts, Woodland, Calif.), 2 mM L-glutamine and 5% Penicillin/streptomycin from Bio whittaker were purchased from VWR. Cells were incubated at 37° C. in a humidified atmosphere of 5% CO2. To remove the adherent cells from the flask for passaging and counting, cells were washed with PBS without calcium or magnesium, incubated with a small volume of 0.25% trypsin-EDTA solution (Sigma-Aldrich, St. Louis, Mo.) for 5-10 min, and washed with culture medium and centrifuged. All experiments were performed using cells at exponential growth stage. Cells were routinely checked for mycoplasma contamination using a PCR-based assay (Stratagene, Tex., USA).
(§2) Stock solutions (10 mM) of all compounds were prepared in DMSO and stored at −20° C. Further dilutions were made fresh in PBS or cell-culture media right before cell treatment.
(§3) Cytotoxicity was assessed by a 3-(4,s-dimethylthiazol-2-yl)-2,5-diphenyltetrazolium bromide (MTT) assay as previously described.^24 Briefly, cells were seeded in 96-well microtiter plates and allowed to attach overnight. Cells were subsequently treated with continuous exposure to the corresponding drug for 72 h. A MTT solution (at a final concentration of 0.5 mglml) was added to each well, and cells were incubated for 4 h at 37° C. After removal of the medium, DMSO was added and the absorbance was read at 570 nm. All assays were done in triplicate. The IC50 was then determined for each drug from a plot of log (drug concentration) versus percentage of cells killed.

[1] = system: panel of cancer cell lines; experiment: MTT cytotoxicity, panel of cancer cell lines (Example 1); type: cell-based; settings: other selected cells, dose up to 10.0 μM
From the text: as §1, with “To remove the adherent cells from the flask for passaging and counting, cells were washed with PBS without calcium or magnesium, incubated with a small volume of 0.25% trypsin-EDTA solution (Sigma-Aldrich, St. Louis, Mo.) for 5-10 min, and washed with culture medium and centrifuged. All experiments were performed using cells at exponential growth stage. Cells were routinely checked for mycoplasma contamination using a PCR-based assay (Stratagene, Tex., USA).” left out
Cytotoxicity was assessed by a 3-(4,s-dimethylthiazol-2-yl)-2,5-diphenyltetrazolium bromide (MTT) assay as previously described.^24 Briefly, cells were seeded in 96-well microtiter plates and allowed to attach overnight. […] After removal of the medium, DMSO was added and the absorbance was read at 570 nm. […] The IC50 was then determined for each drug from a plot of log (drug concentration) versus percentage of cells killed.

MDA-MB-435 = experiment: MTT cytotoxicity assay (Example 1); type: cell-based, human; settings: Homo sapiens, MDA-MB-435, 72 h
From the text: as §1, §2, §3

HEY = experiment: MTT cytotoxicity assay (Example 1); type: cell-based, human; settings: 72 h
From the text: as §1, §2, §3

HCT116 p53−/− = experiment: MTT cytotoxicity assay (Example 1); type: cell-based; settings: for IC50: MTT, 72 h
From the text: as §1, §2, §3

HCT116 p53+/+ = experiment: MTT cytotoxicity assay (Example 1); type: cell-based; settings: for IC50: MTT, 72 h
From the text: as §1, §2, §3

## Cc1cccc(Nc2nc3nonc3nc2NN=Cc2ccc(-c3ccccc3Cl)o2)c1C [Compound 19]
NIH3T3
  IC50: > 10 µM
[1]
  toxicity: not toxic
MDA-MB-435
  IC50: > 10 µM
HEY
  IC50: 5 µM
HEY; Homo sapiens
  IC50: 3 µM
HCT116 p53−/−
  toxicity: toxic
  IC50: 4 µM
HCT116 p53−/−; Homo sapiens, HCT-116, 72 h
  IC50: 6 µM
HCT116 p53+/+
  toxicity: toxic
  IC50: 2 µM
HCT116 p53+/+; Homo sapiens, HCT-116, 72 h
  IC50: 3 µM

— patent US8445677B2, “Substituted pyrimidyl guanidine derivatives having anticancer activity” (University of Southern California, priority 2008, dated 2013)
